For orientation: IC50 means the point on the concentration scale where inhibition reaches its midpoint. High values mean weaker potency, low ones greater potency.

Our source for the IC50 values is BindingDB's records for patent US10392346 (Topivert Pharma, 2019).

Test [1] deals with Proto-oncogene tyrosine-protein kinase Src (Homo sapiens, UniProt P12931). Put plainly: Enzyme Inhibition. On the procedure:
The relevant enzyme (3000 ng/mL or 2000 ng/mL respectively, 2.5 μL) is incubated with the test compound (either 1 μg/mL, 0.1 μg/mL, 0.01 μg/mL, or 0.001 μg/mL, 2.5 μL each) for 2 hr at RT. The FRET peptides (8 μM, 2.5 μL), and appropriate ATP solutions (2.5 μL, 800 μM for c-Src, and 60 μM ATP for Syk) are then added to the enzymes/compound mixtures and the mixture incubated for 1 hr. Development reagent (protease, 5 μL) is added for 1 hr prior to detection in a fluorescence microplate reader (Varioskan Flash, ThermoFisher Scientific).

Test [2] deals with Glycogen synthase kinase-3 alpha (Homo sapiens, UniProt P49840). Put plainly: Enzyme Inhibition. The protocol:
In addition, the concentrations of test compound employed are either 10 μg/mL, 1 μg/mL, 0.1 μg/mL, or 0.01 μg/m: Method 1: The inhibitory activities of test compounds against the p38 MAPKα isoform (MAPK14: Invitrogen) are evaluated indirectly by determining the level of activation/phosphorylation of the down-stream molecule, MAPKAP-K2. The p38 MAPKα protein (80 ng/mL, 2.5 μL) is mixed with the test compound (2.5 μL of either 4 μg/mL, 0.4 μg/mL, 0.04 μg/mL or 0.004 μg/mL) for 2 hr at RT. […] The mixture is incubated for 1 hr at RT. Development reagent (protease, 5 μL) is added for 1 hr prior to detection in a fluorescence microplate reader (Varioskan Flash, ThermoFisher Scientific).

Chain of Glycogen synthase kinase-3 alpha (P49840 whole entry, canonical isoform): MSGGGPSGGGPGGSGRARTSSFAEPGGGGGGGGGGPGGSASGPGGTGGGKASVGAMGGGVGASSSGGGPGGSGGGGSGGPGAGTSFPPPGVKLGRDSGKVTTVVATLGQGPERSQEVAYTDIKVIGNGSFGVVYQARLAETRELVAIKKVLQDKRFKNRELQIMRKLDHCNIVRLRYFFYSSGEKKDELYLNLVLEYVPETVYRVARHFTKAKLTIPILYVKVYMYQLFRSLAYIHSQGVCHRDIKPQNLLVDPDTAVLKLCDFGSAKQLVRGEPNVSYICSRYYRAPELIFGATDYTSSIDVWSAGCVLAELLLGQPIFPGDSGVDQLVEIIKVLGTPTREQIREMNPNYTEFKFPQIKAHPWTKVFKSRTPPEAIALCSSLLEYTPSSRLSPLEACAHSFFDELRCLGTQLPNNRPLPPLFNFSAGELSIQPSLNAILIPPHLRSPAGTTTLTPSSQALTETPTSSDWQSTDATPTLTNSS
Chain of Proto-oncogene tyrosine-protein kinase Src (P12931 2-536 limits assumed): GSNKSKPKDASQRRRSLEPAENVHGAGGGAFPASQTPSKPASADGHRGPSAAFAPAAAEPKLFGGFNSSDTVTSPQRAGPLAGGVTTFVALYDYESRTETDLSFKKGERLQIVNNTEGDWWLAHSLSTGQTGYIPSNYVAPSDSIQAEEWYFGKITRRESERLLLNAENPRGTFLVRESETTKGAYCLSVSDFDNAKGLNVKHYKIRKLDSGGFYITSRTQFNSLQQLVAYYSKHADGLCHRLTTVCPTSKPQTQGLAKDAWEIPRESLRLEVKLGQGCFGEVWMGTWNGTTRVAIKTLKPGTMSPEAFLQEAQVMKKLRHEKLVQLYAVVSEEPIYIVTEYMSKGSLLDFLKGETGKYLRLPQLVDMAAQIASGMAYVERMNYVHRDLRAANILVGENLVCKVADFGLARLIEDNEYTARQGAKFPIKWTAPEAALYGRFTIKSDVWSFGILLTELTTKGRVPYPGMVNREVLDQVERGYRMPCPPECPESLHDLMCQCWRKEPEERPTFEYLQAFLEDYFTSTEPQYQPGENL

As to `COc1cc(Nc2cc(Oc3ccc(NC(=O)Nc4cc(C(C)(C)C)cc(N[S+](C)[O-])c4OC)c4ccccc34)ccn2)ccc1C(=O)NCCN1CCN(C)CC1` (stereo unspecified) [US10392346, Example 17(a)], the IC50 was 16 nM in test [1] and 4000 nM in test [2].
On the same counts, the results for `COc1cc(Nc2cc(Oc3ccc(NC(=O)Nc4cc(C(C)(C)C)cc(NS(C)(=O)=O)c4OC)c4ccccc34)ccn2)ccc1C(=O)N(C)CCCN1CC[S+]([O-])CC1` [US10392346, Example 17(ag)] are 17 nM and 2740 nM.
The matching figures for `COc1cc(Nc2cc(Oc3ccc(NC(=O)Nc4cc(C(C)(C)C)cc(NS(C)(=O)=O)c4OC)c4ccccc34)ccn2)ccc1C(=O)N(C)CCCN1CCS(=O)(=O)CC1` [US10392346, Example 17(ah)]: 20 nM and 9190 nM.
